Reference: patent publication US9018208B2, “Heterocycles as potassium channel modulators” (Icagen Inc., priority 2007, dated 2015)

Test system: SH-SY5Y M-currents (KCNQ2, KCNQ3 and KCNQ5)
Assay: SH-SY5Y native cell line FLIPR assay (voltage-sensitive dye DiBAC)
Type: cell-based, mouse neuroblastoma, rat glioma hybrid cell line
Conditions: FLIPR assay, SH-SY5Y native cell line; Table 1; read-out: SH-SY5Y EC50
Excerpt: SH-SY5Y cells, a mouse neuroblastoma, rat glioma hybrid cell line, functionally express M-currents (Robbins et al., J. Physiol. 451: 159-85 (1992). SH-SY5Y M-currents are likely comprised, at least in part, of KCNQ2, KCNQ3 and KCNQ5, since these genes are reportedly robustly expressed in differentiated SH-SY5Y cells (Selyanko et al., J. Neurosci. 19(18): 7742-56 (1999); Schroeder et al., J. Biol. Chem. 275(31): 24089-95 (2000)) and KCNQ3 dominant-negative constructs reduce M-current density in these cells (Selyanko et al., J. Neurosci. 22(5): RC212 (2002).
SH-SY5Y were maintained in DMEM (high glucose) supplemented with 10% fetal bovine serum, 0.05 mM pyridoxine, 0.1 mM hypoxanthine, 400 nM aminopterin, […], 50 μgml^−1 gentamycin and 10 mM HEPES, in an incubator at 37° C. with a humidified atmosphere of 5% CO2. Cells were plated in 96 well plates differentiated by addition of 10 μM PGE1 and 50 μM isomethylbutylxanthine to the growth media prior to study.
Differentiated SH-SY5Y cells were loaded with voltage-sensitive dye by incubation in Earls Balanced Salt Solution (EBSS) containing […] DiBAC for 1 h. Following loading, drug solution containing […] DiBAC was added to each well. Changes in fluorescence were measured every 30 s for 25 min. The maximum change in fluorescence was measured and expressed as a percentage of the maximum response obtained in the presence of a positive control agent.

Molecule | EC50
Cc1cccc2nc(NC(=O)C(F)(F)F)cn12 [Compound 8, 2,2,2-trifluoro-N-(5-methylimidazo[1,2-a]pyridin-2-yl)acetamide] | 3000 to 10000 nM
Cc1cccc2nc(NC(=O)CC(C)(C)C)cn12 [Compound 9, 3,3-dimethyl-N-(5-methylimidazo[1,2-a]pyridin-2-yl)butanamide] | 3000 to 10000 nM
O=C(Nc1cn2cc(F)ccc2n1)C(F)(F)F [Compound 10, 2,2,2-trifluoro-N-(6-fluoroimidazo[1,2-a]pyridin-2-yl)acetamide] | 3000 to 10000 nM
O=C(Nc1nc2ccc(F)cn2c1I)C(F)(F)F [Compound 11, 2,2,2-trifluoro-N-(6-fluoro-3-iodoimidazo[1,2-a]pyridin-2-yl)acetamide] | 3000 to 10000 nM
O=C(Nc1cn2c(C(F)(F)F)cccc2n1)C(F)(F)F [Compound 12, 2,2,2-trifluoro-N-(5-(trifluoromethyl)imidazo[1,2-a]pyridin-2-yl)acetamide] | 3000 to 10000 nM
O=C(Cc1ccc(F)cc1)Nc1cn2c(C(F)(F)F)cccc2n1 [Compound 13, 2-(4-fluorophenyl)-N-(5-(trifluoromethyl)imidazo[1,2-a]pyridin-2-yl)acetamide] | 3000 to 10000 nM
CC(C)(C)CC(=O)Nc1nc2ccc(F)cn2c1C1CC1 [Compound 14, N-(3-cyclopropyl-6-fluoroimidazo[1,2-a]pyridin-2-yl)-3,3-dimethylbutanamide] | 500 to 3000 nM
CC(C)(C)CC(=O)Nc1nc2ccc(F)cn2c1CC(C)(C)C [Compound 15, N-(6-fluoro-3-neopentylimidazo[1,2-a]pyridin-2-yl)-3,3-dimethylbutanamide] | 500 to 3000 nM
CC(C)(C)CC(=O)Nc1nc2ccc(F)cn2c1Cc1ccc(F)cc1 [Compound 16, N-(6-fluoro-3-(4-fluorobenzyl)imidazo[1,2-a]pyridin-2-yl)-3,3-dimethylbutanamide] | < 500 nM
CC(C)(C)Cc1c(NC(=O)Cc2ccc(F)cc2)nc2ccc(F)cn12 [Compound 17, N-(6-fluoro-3-neopentylimidazo[1,2-a]pyridin-2-yl)-2-(4-fluorophenyl) acetamide] | < 500 nM
O=C(Cc1ccc(F)cc1)Nc1nc2ccc(F)cn2c1Cc1ccc(F)cc1 [Compound 18, N-(6-fluoro-3-(4-fluorobenzyl)imidazo[1,2-a]pyridin-2-yl)-2-(4-fluorophenyl)acetamide] | < 500 nM
CC(C)(C)Cc1c(NC(=O)Cc2ccc(F)cc2)nc2ccc(C(F)(F)F)cn12 [Compound 21, 2-(4-fluorophenyl)-N-(3-neopentyl-6-(trifluoromethyl)imidazo[1,2-a]pyridin-2-yl)acetamide] | < 500 nM
CC(C)(C)Cc1c(NC(=O)Cc2ccc(Oc3ccccc3)cc2)nc2ccc(C(F)(F)F)cn12 [Compound 22, N-(3-neopentyl-6-(trifluoromethyl)imidazo[1,2-a]pyridin-2-yl)-2-(4-phenoxyphenyl)acetamide] | < 500 nM
CC(C)(C)Cc1c(NC(=O)Cc2cccc(OC(F)(F)F)c2)nc2ccc(C(F)(F)F)cn12 [Compound 25, N-(3-neopentyl-6-(trifluoromethyl)imidazo[1,2-a]pyridin-2-yl)-2-(3-(trifluoromethoxy)phenyl)acetamide] | < 500 nM
CC(C)(C)Cc1c(NC(=O)Cc2ccc(OC(F)(F)F)cc2)nc2ccc(C(F)(F)F)cn12 [Compound 26, N-(3-neopentyl-6-(trifluoromethyl)imidazo[1,2-a]pyridin-2-yl)-2-(4-(trifluoromethoxy)phenyl)acetamide] | < 500 nM
CC(C)(C)Cc1c(NC(=O)Cc2ccc(Cl)cc2)nc2ccc(C(F)(F)F)cn12 [Compound 27, 2-(4-chlorophenyl)-N-(3-neopentyl-6-(trifluoromethyl)imidazo[1,2-a]pyridin-2-yl)acetamide] | < 500 nM
CC(C)(C)CC(=O)Nc1nc2ccc(F)cn2c1Cc1ccc(C(F)(F)F)cc1 [Compound 28, N-(6-fluoro-3-(4-(trifluoromethyl)benzyl)imidazo[1,2-a]pyridin-2-yl)-3,3-dimethylbutanamide] | < 500 nM

Molecule | EC50
CC(CC(=O)Nc1nc2ccc(F)cn2c1Cc1ccc(C(F)(F)F)cc1)C(F)(F)F (centres unmarked) [Compound 29, 4,4,4-trifluoro-N-(6-fluoro-3-(4-(trifluoromethyl)benzyl)imidazo[1,2-a]pyridin-2-yl)-3-methylbutanamide] | < 500 nM
CC(C)C(C)C(=O)Nc1nc2ccc(F)cn2c1Cc1ccc(C(F)(F)F)cc1 (centres unmarked) [Compound 30, N-(6-fluoro-3-(4-(trifluoromethyl)benzyl)imidazo[1,2-a]pyridin-2-yl)-2,3-dimethylbutanamide] | 500 to 3000 nM
CC(C)CCc1c(NC(=O)CC(C)(C)C)nc2ccc(C(F)(F)F)cn12 [Compound 31, N-(3-isopentyl-6-(trifluoromethyl)imidazo[1,2-a]pyridin-2-yl)-3,3-dimethylbutanamide] | < 500 nM
CC(C)(C)CC(=O)Nc1nc2ccc(C(F)(F)F)cn2c1C1CCCCC1 [Compound 33, N-(3-cyclohexyl-6-(trifluoromethyl)imidazo[1,2-a]pyridin-2-yl)-3,3-dimethylbutanamide] | < 500 nM
CC(C)(C)Cc1c(NC(=O)CC2(C)CCCC2)nc2ccc(C(F)(F)F)cn12 [Compound 34, 2-(1-methylcyclopentyl)-N-(3-neopentyl-6-(trifluoromethyl)imidazo[1,2-a]pyridin-2-yl)acetamide] | < 500 nM
CC(C)(C)Cc1c(NC(=O)Cc2cccc(Cl)c2)nc2ccc(C(F)(F)F)cn12 [Compound 35, 2-(3-chlorophenyl)-N-(3-neopentyl-6-(trifluoromethyl)imidazo[1,2-a]pyridin-2-yl)acetamide] | < 500 nM
CC(C)CCc1c(NC(=O)Cc2ccccc2)nc2ccc(C(F)(F)F)cn12 [Compound 36, N-(3-isopentyl-6-(trifluoromethyl)imidazo[1,2-a]pyridin-2-yl)-2-phenylacetamide] | < 500 nM
O=C(Cc1ccccc1)Nc1nc2ccc(C(F)(F)F)cn2c1CC1CCCCC1 [Compound 37, N-(3-(cyclohexylmethyl)-6-(trifluoromethyl)imidazo[1,2-a]pyridin-2-yl)-2-phenylacetamide] | < 500 nM
CC(C)CCc1c(NC(=O)Cc2ccc(F)cc2)nc2ccc(C(F)(F)F)cn12 [Compound 39, 2-(4-fluorophenyl)-N-(3-isopentyl-6-(trifluoromethyl)imidazo[1,2-a]pyridin-2-yl)acetamide] | < 500 nM
O=C(Cc1ccc(F)cc1)Nc1nc2ccc(C(F)(F)F)cn2c1CC1CCCCC1 [Compound 40, N-(3-(cyclohexylmethyl)-6-(trifluoromethyl)imidazo[1,2-a]pyridin-2-yl)-2-(4-fluorophenyl)acetamide] | < 500 nM
O=C(Cc1ccc(F)cc1)Nc1nc2ccc(C(F)(F)F)cn2c1C1CCCCC1 [Compound 41, N-(3-cyclohexyl-6-(trifluoromethyl)imidazo[1,2-a]pyridin-2-yl)-2-(4-fluorophenyl)acetamide] | < 500 nM
CC(C)CCc1c(NC(=O)Cc2cccc(Cl)c2)nc2ccc(C(F)(F)F)cn12 [Compound 42, 2-(3-chlorophenyl)-N-(3-isopentyl-6-(trifluoromethyl)imidazo[1,2-a]pyridin-2-yl)acetamide] | < 500 nM
O=C(Cc1cccc(Cl)c1)Nc1nc2ccc(C(F)(F)F)cn2c1CC1CCCCC1 [Compound 43, 2-(3-chlorophenyl)-N-(3-(cyclohexylmethyl)-6-(trifluoromethyl)imidazo[1,2-a]pyridin-2-yl)acetamide] | < 500 nM
O=C(Cc1cccc(Cl)c1)Nc1nc2ccc(C(F)(F)F)cn2c1C1CCCCC1 [Compound 44, 2-(3-chlorophenyl)-N-(3-cyclohexyl-6-(trifluoromethyl)imidazo[1,2-a]pyridin-2-yl)acetamide] | < 500 nM
CC(C)CCc1c(NC(=O)CC2(C)CCCC2)nc2ccc(C(F)(F)F)cn12 [Compound 45, N-(3-isopentyl-6-(trifluoromethyl)imidazo[1,2-a]pyridin-2-yl)-2-(1-methylcyclopentyl)acetamide] | < 500 nM
CC1(CC(=O)Nc2nc3ccc(C(F)(F)F)cn3c2CC2CCCCC2)CCCC1 [Compound 46, N-(3-(cyclohexylmethyl)-6-(trifluoromethyl)imidazo[1,2-a]pyridin-2-yl)-2-(1-methylcyclopentyl)acetamide] | < 500 nM
CC1(CC(=O)Nc2nc3ccc(C(F)(F)F)cn3c2C2CCCCC2)CCCC1 [Compound 47, N-(3-cyclohexyl-6-(trifluoromethyl)imidazo[1,2-a]pyridin-2-yl)-2-(1-methylcyclopentyl)acetamide] | < 500 nM

Same assay, conditions: FLIPR assay, SH-SY5Y native cell line; Table 2; read-out: SH-SY5Y EC50

Molecule | EC50
2-(3,4-dichlorophenyl)-N-(6-fluoro-3-(4-fluorophenyl)imidazo yl)acetamide [Compound 142] | < 500 nM
2-(3-chlorophenyl)-N-(6-fluoro-3-(4-(trifluoromethoxy)phenyl)imidazo yl)acetamide [Compound 239] | < 500 nM
3-tert-butoxy-N-(6-fluoro-3-(4-(trifluoromethoxy)phenyl)imidazo yl)propanamide [Compound 261] | < 500 nM

Same assay, conditions: read-out: SH-SY5Y_EC50

Molecule | EC50
CC(C)(C)CC(=O)Nc1nc2ccc(F)cn2c1C1CC1 [Compound 14, N-(3-cyclopropyl-6-fluoroimidazo[1,2-a]pyridin-2-yl)-3,3-dimethylbutanamide] | 2550 nM
